Assay [1] deals with T1, Adenosine receptor A1 (Cavia porcellus) (UniProt P47745).
T1 sequence (whole entry): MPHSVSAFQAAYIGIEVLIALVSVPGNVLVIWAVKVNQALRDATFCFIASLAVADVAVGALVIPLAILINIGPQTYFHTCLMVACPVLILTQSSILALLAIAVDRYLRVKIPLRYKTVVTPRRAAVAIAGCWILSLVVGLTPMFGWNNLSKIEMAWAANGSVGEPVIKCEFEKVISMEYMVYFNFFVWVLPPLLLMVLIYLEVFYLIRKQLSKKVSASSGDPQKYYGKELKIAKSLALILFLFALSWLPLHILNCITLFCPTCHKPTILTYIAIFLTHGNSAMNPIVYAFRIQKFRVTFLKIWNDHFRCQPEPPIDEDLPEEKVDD
Description: Positive chronotropic effect on isolated guinea pig right atrium (heart stimulation). Conditions: Cardiac atrium. In kind it is functional, tissue-based.

A short description of assay [2]: Inhibition of c-AMP phosphodiesterase activity in guinea pig tracheal muscle.
The next assay addresses Adenosine receptor A2a (Cavia porcellus, UniProt P46616). Description: Affinity against adenosine A2 receptor in the brain membranes measured by the displacement of [3H]-CPX. The format is cell membranes, Membrane.
Assay [3] is described as follows: Ratio of stimulatory activity in right atrium to relaxant activity in tracheal muscle. In kind it is functional, Cardiac atrium.
In another assay the target is T2, Adenosine receptor A1 (Cavia porcellus, UniProt P47745).
T2 sequence (P47745 whole entry): T1 sequence (whole entry)
Description: Affinity against adenosine A1 receptor in the brain membranes by the displacement of [3H]CPX. In kind it is cell membranes, Membrane. For orientation: Displacement assays read how much labelled ligand stays bound in the presence of the test substance.

In another assay the target is Adenosine A2 receptor (Homo sapiens, UniProt P29275+P29274). In words: Affinity against adenosine A2 receptor in brain membranes by displacement of [3H]CPX. In kind it is cell membranes, Cavia porcellus, Membrane.
In assay [4] the test system is Cavia porcellus. Description: In vivo reduction of acetylcholine-induced bronchospasm in guinea pigs by intraduodenal dose. In kind it is functional.
Assay [5] is described as follows: Inhibitory activity against c-AMP phosphodiesterase in guinea pig tracheal muscle.
The subject of assay [6] is Cavia porcellus. In words: In vivo positive chronotropic effect on isolated guinea pig right atrium. The format is functional, Cardiac atrium.

pKi: −log10 of the molar value.

Chain of Adenosine receptor A2a (P46616 whole entry): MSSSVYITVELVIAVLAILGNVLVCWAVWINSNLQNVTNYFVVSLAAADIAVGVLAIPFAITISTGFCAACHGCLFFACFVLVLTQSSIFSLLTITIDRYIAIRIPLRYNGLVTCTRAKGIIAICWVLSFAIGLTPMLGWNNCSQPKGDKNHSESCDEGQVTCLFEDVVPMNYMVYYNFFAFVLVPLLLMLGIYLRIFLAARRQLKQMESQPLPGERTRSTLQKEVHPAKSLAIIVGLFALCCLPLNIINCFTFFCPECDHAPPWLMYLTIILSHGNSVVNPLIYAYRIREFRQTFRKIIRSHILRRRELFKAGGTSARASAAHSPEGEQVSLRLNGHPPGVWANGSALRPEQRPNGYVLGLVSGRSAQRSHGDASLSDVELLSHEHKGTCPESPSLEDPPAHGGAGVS

In assay [1], `CCCCn1c(=O)[nH]c2[nH]cnc2c1=O` yielded an EC15 of more than 100 µM.
`CCCn1cnc2c1c(=O)n(C)c(=O)n2CCC`: in assay [2], the Ki was determined as 30.8 µM. The pKi was 4.36 on Adenosine receptor A2a and 5.03 on Adenosine receptor A1. In [3], the Broncho selectivity amounted to 9. The same compound came in with an EC15 in [1] of 45.2 µM.
For `CCCCn1c(=O)[nH]c(=O)c2[nH]cnc21`, the Ki in assay [2] is 32 µM. The Broncho selectivity in assay [3] is 2.1. Moreover, the pKi on Adenosine receptor A1 was 4.67. Also, in assay [1], the EC15 was determined as 17 µM.
On to `CCn1c(=O)[nH]c2nc[nH]c2c1=O`, for which the pKi is 4.47 at Adenosine receptor A2a and 5.01 at Adenosine receptor A1.
For the compound `O=c1[nH]c(=O)c2[nH]cnc2[nH]1` [XANTHINE], the negative logarithm of the Ki (pKi) on Adenosine receptor A1 is less than 3.70.
Regarding `CCCn1c(=O)n(C)c(=O)c2c1ncn2CC`, the pKi at Adenosine receptor A1 was 4.85. In assay [1], this compound displayed an EC15 of more than 100 µM.
Regarding `CCCn1cnc2c1c(=O)[nH]c(=O)n2CCC`, in [2], the Ki was determined as 35 µM. The Broncho selectivity in assay [3] is reported as more than 6.3. Further, at Adenosine receptor A1, the negative-log Ki (pKi) was 4.74. In [1], the EC15 is more than 100 µM.
As to `CCCn1c(=O)c2nc[nH]c2n(C)c1=O`, the Ki in assay [2] is 26 µM. Besides, in assay [3], the Broncho selectivity was determined as 3.7. In assay [1], this compound gave an EC15 of 36.2 µM.
With `CCn1c(=O)n(C)c(=O)c2[nH]cnc21`, the pKi at Adenosine receptor A2a is 4.60; at Adenosine receptor A1 it was 5.12. In addition, the EC15 in assay [1] turned out to be 28.5 µM.
For the compound `CCCn1c(=O)n(C)c(=O)c2c1ncn2C`, the negative-log Ki (pKi) at Adenosine receptor A2a was 4.70; on Adenosine receptor A1, 4.84. The EC15 in [1] is 45.4 µM.
Consider `Cn1c(=O)[nH]c2nc[nH]c2c1=O` [1-METHYLXANTHINE], for which the pKi at Adenosine receptor A2a is 4.17; on Adenosine receptor A1, 4.94.
In turn, `CCCn1c(=O)c2nc[nH]c2n(CCC)c1=O` showed a pKi on Adenosine receptor A1 of 6.70. For the same compound, the EC15 in assay [1] is 20 µM.
Compound `CCCn1c(=O)n(CC)c(=O)c2[nH]cnc21` returned a Ki in assay [2] of 24.1 µM. Besides, the pKi at Adenosine receptor A2a is 5.41; at Adenosine receptor A1, 5.85. Besides, the Broncho selectivity in assay [3] came to 4.7. The compound also displayed an EC15 in assay [1] of 6.1 µM.
On to `Cn1c(=O)[nH]c(=O)c2[nH]cnc21` [3-METHYLXANTHINE], for which, at Adenosine A2 receptor, the inhibition constant Ki came to 133 µM. In assay [1], this compound yielded an EC15 of more than 100 µM.
On to `CCCCn1c(=O)c2c(ncn2C)n(CCC)c1=O`, for which, in assay [3], the Broncho selectivity amounted to 71.4. The compound further showed a pKi on Adenosine receptor A1 of 5.22. The EC15 in [1] was more than 100 µM. In addition, in the assay on Cavia porcellus [4], the 50% effective dose (ED50) came out at 2.34 mg/kg. In addition, in assay [5], the inhibition constant Ki worked out at 30.1 µM. In addition, the ED15 with Cavia porcellus [6] is reported as more than 100 mg kg-1 i.d.
In assay [1], `O=c1[nH]c(=O)c2nc[nH]c2[nH]1` gave an EC15 of more than 100 µM.
On to `CCCn1c(=O)n(CC)c(=O)c2c1ncn2C`, for which, in assay [3], the Broncho selectivity is 4. The pKi at Adenosine receptor A1 was 4.93. In assay [1], this compound displayed an EC15 of 30 µM. For the same compound, the Ki in assay [5] was determined as 19.4 µM.
`CCCn1c(=O)[nH]c2nc[nH]c2c1=O`: the pKi was 4.63 on Adenosine receptor A2a and 5.48 on Adenosine receptor A1.
For the compound `CCCn1c(=O)[nH]c(=O)c2nc[nH]c21` [ENPROFYLLINE], in assay [1], the EC15 turned out to be 18.3 µM. For the same compound, the median effective dose (ED50) in the assay with Cavia porcellus [4] is 25.7 mg/kg. In addition, the ED15 in the assay on Cavia porcellus [6] is 95.1 mg kg-1 i.d.
Take `CCCn1c(=O)[nH]c(=O)c2c1ncn2CC`: the Broncho selectivity in [3] stood at 12. The pKi at Adenosine receptor A1 was 4.39. Moreover, the EC15 in [1] is more than 100 µM. For the same compound, the inhibition constant Ki in [5] is 13.2 µM.
`CCCn1c(=O)n(C)c(=O)c2[nH]cnc21` returned a Ki in assay [2] of 10.6 µM. Also, the pKi on Adenosine receptor A2a is 5.10; at Adenosine receptor A1 it was 5.72. Moreover, the Broncho selectivity in [3] is 2.1. The EC15 in assay [1] was determined as 3.3 µM.
On Adenosine receptor A1, `CCCn1c(=O)c2c(ncn2C)n(CCC)c1=O` showed a negative logarithm of the Ki (pKi) of 5.11. In addition, in assay [1], the EC15 turned out to be 45.8 µM.
In assay [2], `CCCCn1cnc2c1c(=O)[nH]c(=O)n2CCC` gave a Ki of 36.5 µM. Further, in assay [3], the Broncho selectivity turned out to be 7.1. The compound also had a pKi on Adenosine receptor A1 of 4.92. In [1], this compound had an EC15 of more than 100 µM.
As for `CCCCn1c(=O)c2[nH]cnc2n(CCC)c1=O`, the results for the negative-log Ki (pKi) on Adenosine receptor A2a and on Adenosine receptor A1 were 5.39 and 7.70, respectively.
The compound `CCCCn1c(=O)c2nc[nH]c2n(C)c1=O` gave a pKi on Adenosine receptor A1 of 5.37. This compound also had an EC15 in assay [1] of 90.5 µM.
On to `CCCCn1c(=O)[nH]c2nc[nH]c2c1=O`, for which the pKi was 4.81 at Adenosine receptor A2a and 5.52 on Adenosine receptor A1.
For the compound `Cn1c(=O)c2[nH]cnc2n(C)c1=O`, the EC15 in [1] was 62 µM.
Consider `CCn1c(=O)c2nc[nH]c2n(C)c1=O`, for which the pKi on Adenosine receptor A1 is 5.01. In assay [1], this compound displayed an EC15 of 34 µM.
At Adenosine receptor A1, `CCn1c(=O)[nH]c(=O)c2[nH]cnc21` gave a pKi of 3.93. Also, in [1], the EC15 was more than 100 µM.
In [2], `CCCCn1cnc2c1c(=O)n(C)c(=O)n2CCC` returned a Ki of more than 200 µM. For the same compound, the pKi was 4.82 on Adenosine receptor A2a and 5.14 at Adenosine receptor A1. Further, in assay [3], the Broncho selectivity came to 32.3. This compound also came in with an EC15 in assay [1] of more than 100 µM.
For the compound `Cn1c(=O)c2nc[nH]c2n(C)c1=O.O` [THEOPHYLLINE], it took a dose of 23.4 mg/kg to reach the 50% effect level in the assay with Cavia porcellus [4] (ED50). The same compound came in with an ED15 with Cavia porcellus [6] of 20.2 mg kg-1 i.d.
In turn, `CCCn1c(=O)[nH]c2[nH]cnc2c1=O` came in with an EC15 in [1] of more than 100 µM.
Compound `CCCn1c(=O)c2[nH]cnc2n(C)c1=O` gave a pKi at Adenosine receptor A1 of 5.47.
On to `CCn1c(=O)[nH]c2[nH]cnc2c1=O`, for which the EC15 in assay [1] was more than 100 µM.
Turning to `Cn1c(=O)[nH]c2[nH]cnc2c1=O` [1-METHYLXANTHINE], the inhibitory constant (Ki) in assay [2] stood at 163 µM. Also, the Broncho selectivity in [3] is on record as 1.3. In assay [1], the EC15 was more than 100 µM.
As to `CCCn1c(=O)[nH]c(=O)c2c1ncn2C`, the pKi on Adenosine receptor A1 was 4.04. For the same compound, the EC15 in [1] was more than 100 µM.
In assay [1], `CCCCn1c(=O)c2nc[nH]c2n(CCC)c1=O` had an EC15 of 29 µM. Further, in the assay with Cavia porcellus [4], it took a dose of 2.87 mg/kg to reach the 50% effect level (ED50). The same compound registered an ED15 with Cavia porcellus [6] of more than 100 mg kg-1 i.d.
In the case of `CCCCn1c(=O)n(C)c(=O)c2[nH]cnc21`, the pKi on Adenosine receptor A2a is 5.32; at Adenosine receptor A1, 5.72. Besides, the Broncho selectivity in assay [3] is 1.7. The EC15 in assay [1] came to 2.2 µM. The compound also displayed a Ki in assay [5] of 10.2 µM.

One may read the Ki as a dissociation constant, usually derived from enzyme kinetics or from competition with a known ligand. Higher therefore signals weaker binding. Usually pKi stands for the Ki on a negative log10 scale, so that one unit is a factor of ten. The ED50 is the midpoint of the dose-response relation.

The values above are taken from ChEMBL document CHEMBL1125335 (J Med Chem, 1992).
